# Results published in the PolyMetriX glass transition set.
# ± gives the standard deviation of the reports.
row,SMILES,glass transition temperature [°C]
1,*c1ccc(Oc2ccc3ccccc3c2-c2c(Oc3ccc(N4C(=O)c5ccc(NC(=O)Nc6cccc(NC(=O)Nc7ccc8c(c7)C(=O)N(*)C8=O)n6)cc5C4=O)cc3)ccc3ccccc23)cc1 (repeat unit),283.00
2,*c1cccc(N2C(=O)c3ccc(Oc4ccc(Oc5ccc6c(c5)C(=O)N(*)C6=O)cc4)cc3C2=O)c1 (repeat unit),255.00
3,*CC(*)(C)C(=O)OCc1c(Cl)cccc1Cl (repeat unit),58.90
4,*Oc1ccc(C2(c3ccc(OC(=O)c4cccc(C(*)=O)c4)c(C)c3)CCC3CCCCC3C2)cc1C (repeat unit),207.00
5,*Nc1ccc(Cc2ccc(NC(=O)/C=C/c3ccc(/C=C/C(*)=O)cc3)cc2)cc1 (repeat unit),230.00
6,*/C=N/c1ccc(C(=O)OCCCCOCCCCOCCCCOC(=O)c2ccc(/N=C/c3ccc4c(c3)c3cc(*)ccc3n4CC(CC)CCCC)cc2)cc1 (repeat unit),5.20
7,*Nc1ccc(C(=O)Nc2ccc(Cc3ccc(NC(=O)c4ccc(NC(=O)c5ccc([Si](C)(C)c6ccc(C(*)=O)cc6)cc5)cc4)cc3)cc2)cc1 (repeat unit),300.00
8,*O[Si](*)(C)CCCCCCOc1ccc(C(=O)Oc2ccc(OCCCCCC)cc2)cc1 (repeat unit),12.00
9,*OC(COC(=O)c1cccc(-c2ccc(C(*)=O)cc2)c1)COc1ccc(/N=N/c2ccc(C#N)cc2)cc1 (repeat unit),135.00
10,*C(=O)Oc1ccc(OC(=O)c2ccc3c(c2)C(=O)N(c2ccc(Oc4ccc(N5C(=O)c6ccc(*)cc6C5=O)cc4)cc2)C3=O)c(C(C)(C)C)c1 (repeat unit),189.00
11,*Oc1ccc(OC(=O)c2ccc(OCCCCCCCCCCCCOc3ccc(C(*)=O)cc3)cc2)cc1S(=O)(=O)c1ccccc1 (repeat unit),82.70
12,*CC(O)CN(C)S(=O)(=O)c1cccc(S(=O)(=O)N(C)CC(O)COc2ccc(-c3ccc(O*)cc3)cc2)c1 (repeat unit),58.00
13,*Oc1ccc(C(CC)(c2ccccc2)c2ccc(OC(=O)c3ccc(C(*)=O)cc3)cc2)cc1 (repeat unit),243.00
14,*Oc1cccc(C(*)=O)c1 (repeat unit),162.00
15,*CC(O)COC(=O)CCCCCCCCC(=O)OCC(O)COc1ccc(/C=C(\C)c2ccc(O*)cc2)cc1 (repeat unit),30.00
16,*C(=O)c1ccc2c(c1)C(=O)N(c1ccc(Oc3ccc(C(=O)c4ccc(C(=O)c5ccc(C(=O)c6ccc(Oc7ccc(N8C(=O)c9ccc(*)cc9C8=O)cc7)cc6)cc5)cc4)cc3)cc1)C2=O (repeat unit),233.00
17,*c1ccc(C(c2ccc(-c3nc4ccc(-c5ccc6nc(*)[nH]c6c5)cc4[nH]3)cc2)(C(F)(F)F)C(F)(F)F)cc1 (repeat unit),269.00
18,*CCCCCCNC(=O)c1ccc(C(C)(CC)c2ccc(C(=O)N*)cc2)cc1 (repeat unit),164.00
19,*CCCCCCOC(=O)CCCCCCCCC(=O)O* (repeat unit),-38.00
20,*c1cc(C(=O)Nc2ccc(-c3nnc(*)o3)cc2)cc(N2C(=O)c3ccccc3C2=O)c1 (repeat unit),324.00
21,*CC(*)(C)C(=O)OCCOCCOCCOCCOc1ccc(/N=N/c2ccc(C#N)cc2)cc1 (repeat unit),20.00

row,SMILES,glass transition temperature [°C]
1,*c1ccc(Oc2ccc(C3(c4ccc(Oc5ccc(N6C(=O)c7ccc(Oc8ccc(C9(c%10ccc(Oc%11ccc%12c(c%11)C(=O)N(*)C%12=O)cc%10)CCC(C(C)(C)C)CC9)cc8)cc7C6=O)cc5)cc4)CC4CC3C3CCCC43)cc2)cc1 (repeat unit),257.00
2,*Cc1ccc(COP(=O)(/N=N/c2ccc(C(=O)c3ccc(/N=N/P(=O)(O*)OC)cc3)cc2)OC)cc1 (repeat unit),48.00
3,*OP(=O)(Oc1ccc(Br)cc1)OC(CCl)COc1ccc(S(=O)(=O)c2ccc(OCC(*)CCl)cc2)cc1 (repeat unit),58.00
4,*C(=O)Nc1ccc(Oc2ccc(NC(=O)c3ccc4c(c3)C(=O)N(c3ccc(Cc5ccc(N6C(=O)c7ccc(*)cc7C6=O)cc5)cc3)C4=O)cc2)cc1 (repeat unit),251.00
5,*CC(*)(C)C(=O)OCC(CC)CCCC (repeat unit),-10.00
6,*CC(CCCCCC)O* (repeat unit),-67.00
7,*OS(=O)(=O)c1cccc(C(=O)Oc2ccc(C(C)(C)c3ccc(*)cc3)cc2)c1 (repeat unit),133.00
8,*c1ccc(Oc2ccc(S(=O)(=O)c3ccc(Oc4ccc(N5C(=O)c6ccc([Si](C)(C)c7ccc8c(c7)C(=O)N(*)C8=O)cc6C5=O)cc4)cc3)cc2)cc1 (repeat unit),246.00
9,*C(=O)c1ccc2c(c1)C(=O)N(c1ccc(N(c3ccccc3)c3ccc(N4C(=O)c5ccc(*)cc5C4=O)cc3)cc1)C2=O (repeat unit),270.00
10,*CCN(CCOC(=O)c1ccc(C(=O)O*)c(OCCC)c1)c1ccc(/N=N/c2nc(C#N)c(C#N)[nH]2)cc1 (repeat unit),152.00
11,*c1cccc(C(c2cccc(N3C(=O)c4ccc(Oc5ccc6c(c5)C(=O)N(*)C6=O)cc4C3=O)c2)(C(F)(F)F)C(F)(F)F)c1 (repeat unit),224.50
12,*Oc1c(Cl)cc(*)cc1Cl (repeat unit),176.82
13,*CCN(CCOC(=O)Nc1ccc(Cc2ccc(NC(=O)O*)cc2)cc1)c1ccc(/N=N/c2ccc([N+](=O)[O-])cc2C)c(C)c1 (repeat unit),130.00
14,*C(=O)OCC(COc1ccc(/N=N/c2ccc(C#N)cc2)cc1)OC(=O)c1ccc(*)s1 (repeat unit),119.00
15,*c1ccc(OC(=O)Nc2ccc(-c3ccc(NC(=O)Oc4ccc(-c5nc(-c6ccc(-c7nc(-c8ccc([N+](=O)[O-])cc8)c(-c8ccc([N+](=O)[O-])cc8)[nH]7)cc6)[nH]c5*)cc4)cc3OC)c(OC)c2)cc1 (repeat unit),223.00
16,*CC(*)(C)C(=O)OCCN(C)c1ccc(/N=N/c2ccc([N+](=O)[O-])cc2)cc1 (repeat unit),110.00
17,*Oc1ccc(Oc2cccc(*)n2)c(C)c1 (repeat unit),89.00
18,*CC(C)(C)CS(*)(=O)=O (repeat unit),108.50
19,*CCCCOC(=O)Nc1ccc(-c2ccc(NC(=O)OCCCCn3c4ccccc4c4cc(/C=C(\C#N)C(=O)OCCCCCCOC(=O)/C(C#N)=C/c5ccc6c(c5)c5ccccc5n6*)ccc43)c(C)c2)cc1C (repeat unit),113.00
20,*CC(=O)Nc1ccc(Oc2ccc(NC(=O)COc3ccc4ccccc4c3Sc3c(O*)ccc4ccccc34)cc2)cc1 (repeat unit),245.00
21,*CCOC(=O)c1ccc(-c2ccc(-c3ccc(C(=O)O*)cc3)cc2)cc1 (repeat unit),180.00

row,SMILES,glass transition temperature [°C]
1,*CCCCCCCCCCCCOc1ccc(OCc2ccc(COc3ccc(O*)cc3)cc2)cc1 (repeat unit),24.00
2,*Nc1ccc(Cc2ccc(NC(=O)NCCCCCCCCCNC(*)=O)cc2)cc1 (repeat unit),-50.00
3,*c1ccc(Oc2ccc(S(=O)(=O)c3ccc(Oc4ccc(-c5cc(*)n(-c6ccccc6)n5)cc4)cc3)cc2)cc1 (repeat unit),235.00
4,*N=P(Cl)(N=P(Cl)(/N=S(/*)Oc1ccccc1-c1ccccc1)Oc1ccccc1-c1ccccc1)Oc1ccccc1-c1ccccc1 (repeat unit),79.00
5,*OP(=O)(Oc1ccc(S(=O)(=O)c2ccc(*)cc2)cc1)OC1CCCCC1 (repeat unit),120.00
6,*OC(=O)CNC(=O)CCCCCCCCC(=O)NCC(=O)OC1COC2C(*)COC12 (repeat unit),66.00
7,*OC(C)C(=O)OCC(*)=O (repeat unit),43.00
8,*CCCCCCCNC(=O)c1ccc(C(=O)N*)cc1 (repeat unit),160.00
9,*CCCNC(=O)Cc1ccc(C(=O)N*)cc1 (repeat unit),109.00
10,*Oc1ccc(C2(c3ccc(Oc4ccc(C(=O)Oc5c(C)cc(C(C)(C)c6cc(C)c(OC(=O)c7ccc(*)cc7)c(C)c6)cc5C)cc4)cc3)CCC(C(C)(C)C)CC2)cc1 (repeat unit),176.00
11,*CC(*)c1ccccc1OC(C)=O (repeat unit),118.00
12,*c1cc(C(=O)OC)cc(N2C(=O)CC(C3Cc4ccccc4C4C(=O)N(*)C(=O)C43)C2=O)c1 (repeat unit),258.00
13,*c1ccc(-c2ccc(N3C(=O)c4ccc(Oc5ccc6c(c5)C(=O)N(*)C6=O)cc4C3=O)cc2C(F)(F)F)c(C(F)(F)F)c1 (repeat unit),275.00
14,*CCCCCCCCCCCCNC(=O)CCP(C)(=O)CCC(=O)N* (repeat unit),44.00
15,*Cc1cc2cc(C(=O)Nc3ccc(C(c4ccc(NC(=O)c5cc6cc(*)c(OC(=O)COc7ccc8ccc(=O)oc8c7)cc6oc5=O)cc4)(C(F)(F)F)C(F)(F)F)cc3)c(=O)oc2cc1OC(=O)COc1ccc2ccc(=O)oc2c1 (repeat unit),257.00
16,*O[Si](*)(C)CCCOc1ccc(C(=O)Oc2ccc(C(=O)Oc3ccc(OC)cc3)cc2)cc1 (repeat unit),38.00
17,*CCCOCCCCOCCCN1C(=O)c2ccc(C(=O)Oc3ccc4cc(OC(=O)c5ccc6c(c5)C(=O)N(*)C6=O)ccc4c3)cc2C1=O (repeat unit),68.00
18,*CCCNC(=O)CCCCC(=O)NCCCN(*)C (repeat unit),5.00
19,*CC(F)(F)CC(*)(C(F)(F)F)C(F)(F)F (repeat unit),132.00
20,*CCCCCC(=O)Nc1ccc(Oc2ccc(Oc3ccc(NC(=O)CCCCCN4C(=O)c5ccc(C(=O)c6ccc7c(c6)C(=O)N(*)C7=O)cc5C4=O)cc3)cc2)cc1 (repeat unit),158.00
21,*CC(*)(C)C(=O)OCCCCCCCCCC (repeat unit) [Poly(decyl methacrylate)],-63.83 ± 1
